From US20130177904A1, “ARNT ISOFORM 3 AS A PREDICTOR OF AMINOFLAVONE RESPONSIVENESS IN CANCER CELLS” (UNIVERSITY OF MARYLAND, BALTIMORE, priority 2010, published 2013)

Columns and labels:
T47D = assay: MTS cell proliferation assay; type: cell-based; settings: Homo sapiens, 120 h; T47D (ER+), 5 days after treatment, estimated from graph FIG. 1; read-out: IC50 (50% Inhibitory Concentration)
Procedure: (§1) The CellTiter 96 Aqueous MTS Reagent (Promega, Cat. G5421 WI) was employed to measure the effects of AF on cell proliferation. Briefly, cells in 100 μl were seeded in 96-well plates (Nunc) at a density of 2,000 cells/well and allowed to attach overnight. AF was added the following day in final concentrations of 0.1 nM to 100 μM in replicas of 8. Proliferation was measured 5 days later by adding 20 μl MTS reagent to the plates and incubation at 37° C. for 2 hours. Viable cells converted the MTS reagent to a formazan product, which was measured 4 hours later at 490 nm using a Synergy HT Multi-Detection Microplate Reader, and KC4 software (Bio-Tek). Cell proliferation was compared to DMSO treated controls as a percentage, against the background growth at the time of AF treatment.
(§2) For IC50 (50% Inhibiting Concentration) determination, vehicle treated cells were deemed as 100% cell growth. Percent growth inhibition was calculated by dividing AF treated MTS values by MTS values of vehicle treated cells, subtracting background (media alone without cells) from both prior to calculations. […] The data as calculated is more representative of percent cell survival and therefore defined as Inhibitory Concentrations (IC50) rather than GI50 values. That said, they provide for a highly accurate means for comparing effects of AF. IC50 values were estimated directly from the graph (FIG. 1), though model fitting employing BiodataFit 1.02 (Chang Biosciences, found on the world wide web at changbioscience.com/stat/ec50ht.html) provided for highly similar results with model fitting correlations of 0.85 or above and generally small SEE values (standard error of the IC50 estimate).

Hs578t = assay: MTS cell proliferation assay; type: cell-based; settings: Homo sapiens, Hs-578T, 120 h; Hs578t (ER−), 5 days after treatment, estimated from graph FIG. 1; read-out: IC50 (50% Inhibitory Concentration)
Procedure: as §1, §2

MDA-MB-231 = assay: MTS cell proliferation assay; type: cell-based; settings: Homo sapiens, 120 h; MDA-MB-231 (ER−), 5 days after treatment, estimated from graph FIG. 1; read-out: IC50 (50% Inhibitory Concentration)
Procedure: as §1, §2

MDA-MB-468 = assay: MTS cell proliferation assay; type: cell-based; settings: Homo sapiens, 120 h; MDA-MB-468 (ER−), 5 days after treatment, estimated from graph FIG. 1; read-out: IC50 (50% Inhibitory Concentration)
Procedure: as §1, §2

MCF7 = assay: MTS cell proliferation assay; type: cell-based; settings: Homo sapiens, 120 h; MCF7 (ER+), 5 days after treatment, estimated from graph FIG. 1; read-out: IC50 (50% Inhibitory Concentration)
Procedure: as §1, §2

BT-549 = BT-549 breast cancer cell line, as determined by the NIH study; cited from earlier work

IC50 (T47D): 110 nM | IC50 (MDA-MB-231): 70000 nM | IC50 (MDA-MB-468): 4 nM | IC50 (MCF7): 70 nM
SMILES: Cc1c(F)c(N)c2c(=O)cc(-c3ccc(N)c(F)c3)oc2c1F [AF, 5-amino-2-(4-amino-3-fluorophenyl)-6,8-difluoro-7-methylchromen-4-one]
IC50 (Hs578t): 20000 nM | AF sensitivity (BT-549): AF in-sensitive
